Experimental data reported in US20170152258A9, “Substituted Pyridopyrazines as Syk Inhibitors” (HUTCHISON MEDIPHARMA LIMITED, priority 2012, published 2017).
“And” between values parts separate entries of the source, which are not always exact repeats. Equal entries are not always repeated.

Tests used:
Syk kinase = Syk kinase (Homo sapiens, UniProt P43405); experiment: SYK Enzymatic Assay (Z-LYTE Tyr 2 peptide); format: biochemical; conditions: 8 concentrations 1 μM down to 0.0003 μM
Method in brief: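 Z-LYTE format using Tyr 2 peptide. After the 1 h room-temperature kinase reaction, development reagent was added for 1 h, then stop reagent. Fluorescence was read at 445 and 520 nm. Compounds were tested at 8 concentrations, 1 μM down to 0.0003 μM (1:3 dilutions).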

RBL-2H3 cells = experiment: IgE-induced Beta-hexosaminidase secretion in RBL-2H3 cells; format: cell-based; conditions: DNP-BSA stimulation
Method in brief: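 RBL-2H3 cells sensitized overnight with 0.5 ug/ml SPE-7 IgE, washed, preincubated with compound 20 min at 37° C, then stimulated with DNP-BSA (150 ng/mL stock) for 45 min. Released β-hexosaminidase measured on supernatant with 1 mM 4-nitrophenyl N-acetyl-β-D-glucosaminide, pH 4.5, 1.5 hr at 37° C; absorbance 405 nm after carbonate quench.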

[1] = Rattus norvegicus, RBL-2H3, IgE-induced Beta-hexosaminidase secretion

IC50 (Syk kinase)	IC50 (RBL-2H3 cells; [1])	IC50 (RBL-2H3 cells; IgE-induced Beta-hexosaminidase secretion)	Structure (SMILES)
35 nM	87 nM		CCC(O)(CC)c1ccc(-c2cc3nccnc3c(OC[C@@H]3CN(S(C)(=O)=O)CCO3)n2)cc1 [Compound 279]
64 nM	108 nM		CNc1ccc(-c2cc3nccnc3c(OC[C@@H]3CN(C(=O)[C@H]4CCOC4)CCO3)n2)cc1 [Compound 50]
32 nM	29 nM		Cc1cc(-c2cc3nccnc3c(O[C@@H]3CCOC3)n2)ccc1N(C)C [Compound 155]
13 nM	20 nM		CN1CCCc2cc(-c3cc4nccnc4c(OC[C@@H]4CN(S(N)(=O)=O)CCO4)n3)ccc21 [Compound 208]
40 nM	142 nM		NS(=O)(=O)N1CCO[C@H](COc2nc(-c3ccc(N4CCCCC4)cc3)cc3nccnc23)C1 [Compound 28]
35 nM	97 nM		CS(=O)(=O)N1CCO[C@H](COc2nc(-c3ccc(C4(O)CCC4)cc3)cc3nccnc23)C1 [Compound 308]
91 nM and 68 nM	57 nM	69 nM	CC(C)c1ccc(-c2cc3nccnc3c(OC[C@@H]3CN(S(C)(=O)=O)CCO3)n2)cc1 [Compound 181]
47 nM	302 nM		CN1CCN(c2ccc(-c3cc4nccnc4c(OC[C@@H]4CNC(=O)C4)n3)cc2)CC1 [Compound 225]
40 nM	64 nM		CC(=O)N1CCO[C@H](COc2nc(-c3ccc4c(c3)CCCN4C)cc3nccnc23)C1 [Compound 185]
60 nM	76 nM		CN(C)c1ccc(-c2cc3nccnc3c(OC[C@@H]3CN(C(=O)C(F)F)CCO3)n2)cc1F [Compound 32]
65 nM	663 nM		CCC(O)(CC)c1ccc(-c2cc3nccnc3c(OC[C@@H]3CN(C(N)=O)CCO3)n2)cc1 [Compound 281]
14 nM	232 nM		COc1ccc(-c2cc3nccnc3c(OC[C@@H]3CN(S(N)(=O)=O)CCO3)n2)cc1OC [Compound 292, (S)-2-(((7-(3,4-dimethoxyphenyl)pyrido[3,4-b]pyrazin-5-yl)oxy)methyl)morpholine-4-sulfonamide]
95 nM	131 nM		CN(C)c1ccc(-c2cc3nccnc3c(OC[C@@H]3CN(C(=O)[C@H]4CC[C@@H](O)CC4)CCO3)n2)cc1 [Compound 75]
88 nM	54 nM		CC(=O)N1CCO[C@H](COc2nc(-c3ccc(C(C)(C)C#N)cc3)cc3nccnc23)C1 [Compound 248]
85 nM	81 nM		C[C@H](O)C(=O)N1CCO[C@H](COc2nc(-c3ccc(N(C)C)cc3)cc3nccnc23)C1 [Compound 197]
55 nM	69 nM		CC(C)c1ccc(-c2cc3nccnc3c(OC[C@@H]3CN(C(N)=O)CCO3)n2)cc1 [Compound 175]
19 nM	52 nM		CN(C)c1ccc(-c2cc3nccnc3c(OC[C@@H]3CN(S(C)(=O)=O)CCO3)n2)cc1Cl [Compound 108]
87 nM	136 nM		COC1CCN(c2ccc(-c3cc4nccnc4c(OC[C@@H]4CN(C(C)=O)CCO4)n3)cc2)CC1 [Compound 48]
110 nM	616 nM		CN(C)c1ccc(-c2cc3nccnc3c(OC[C@@H]3CN(C(=O)c4ncc[nH]4)CCO3)n2)cc1 [Compound 86]
32 nM	54 nM		CN(C)c1ccc(-c2cc3nccnc3c(OC[C@@H]3CN(C(=O)CO)CCO3)n2)cc1 [Compound 173]
52 nM	503 nM		Cc1nccn1CCS(=O)(=O)N1CCO[C@H](COc2nc(-c3ccc(N(C)C)cc3)cc3nccnc23)C1 [Compound 101, (S)—N,N-dimethyl-4-(5-((4-(2-(2-methyl-1H-imidazol-1-yl)ethylsulfonyl)morpholin-2-yl)methoxy)pyrido[4,3-b]pyrazin-7-yl)aniline]
44 nM	1090 nM		CC(C)(O)c1ccc(-c2cc3nccnc3c(OC[C@@H]3CN(C(N)=O)CCO3)n2)cc1 [Compound 266]
24 nM	21 nM		CS(=O)(=O)N1CCO[C@H](COc2nc(-c3ccc(N4CCOCC4)cc3)cc3nccnc23)C1 [Compound 12]
